Data as given in publication PMC2174402 (Environmental Health Perspectives, 2007).
Values joined by “and” are separate entries in the source; they are usually repeats but may differ in a detail not shown here. Identical values can stand only once. Like-named read-outs stand apart in the source and are kept apart here. Marks after values point to notes of the source that are not given here.

How the values were obtained:
aromatase (CYP19) = target: T1, aromatase (CYP19) (Homo sapiens, UniProt P11511); assay: Aromatase activity in JEG-3 choriocarcinoma cells; assay type: cell-based; conditions: for LOEC, aromatase (inhibited activity) / MOEC, aromatase (inhibited activity) / concentration (range) of significant aromatase inhibition: 18 hr exposure; for Maximum % (maximum down-regulation / maximum inhibition, MI), aromatase: control 10 nM 4-AD set to 100%, at the MOEC
T1 sequence (P11511 1-503): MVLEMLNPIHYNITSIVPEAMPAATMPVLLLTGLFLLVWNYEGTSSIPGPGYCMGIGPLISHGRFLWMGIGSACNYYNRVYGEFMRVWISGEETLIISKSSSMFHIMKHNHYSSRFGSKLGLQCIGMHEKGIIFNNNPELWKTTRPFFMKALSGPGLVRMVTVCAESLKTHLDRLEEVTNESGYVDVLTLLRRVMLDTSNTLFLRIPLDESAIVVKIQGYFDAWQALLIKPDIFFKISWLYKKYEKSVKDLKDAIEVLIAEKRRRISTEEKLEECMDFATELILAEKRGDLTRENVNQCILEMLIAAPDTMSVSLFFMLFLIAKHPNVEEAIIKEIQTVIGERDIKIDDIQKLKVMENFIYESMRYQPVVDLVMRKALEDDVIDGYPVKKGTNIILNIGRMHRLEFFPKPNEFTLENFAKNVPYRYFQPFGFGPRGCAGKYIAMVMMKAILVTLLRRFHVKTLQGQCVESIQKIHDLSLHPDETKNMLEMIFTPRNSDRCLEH

CHO cells = assay: Cytotoxicity in the AR assay; assay type: cell-based, Chinese hamster; conditions: for Cytotox (M), AR assay: pSVAR13
[1] = target: aryl hydrocarbon receptor (AhR) (Mus musculus, UniProt P30561); assay: AhR-CALUX
[2] = target: T2, human estrogen receptor (ER) (Homo sapiens, UniProt P03372); assay: cell-based; assay type: cell-based; conditions: for LOEC (lowest effect concentration), ER / MOEC (maximal effect concentration), ER: 24 hr
T2 sequence (P03372 1-595): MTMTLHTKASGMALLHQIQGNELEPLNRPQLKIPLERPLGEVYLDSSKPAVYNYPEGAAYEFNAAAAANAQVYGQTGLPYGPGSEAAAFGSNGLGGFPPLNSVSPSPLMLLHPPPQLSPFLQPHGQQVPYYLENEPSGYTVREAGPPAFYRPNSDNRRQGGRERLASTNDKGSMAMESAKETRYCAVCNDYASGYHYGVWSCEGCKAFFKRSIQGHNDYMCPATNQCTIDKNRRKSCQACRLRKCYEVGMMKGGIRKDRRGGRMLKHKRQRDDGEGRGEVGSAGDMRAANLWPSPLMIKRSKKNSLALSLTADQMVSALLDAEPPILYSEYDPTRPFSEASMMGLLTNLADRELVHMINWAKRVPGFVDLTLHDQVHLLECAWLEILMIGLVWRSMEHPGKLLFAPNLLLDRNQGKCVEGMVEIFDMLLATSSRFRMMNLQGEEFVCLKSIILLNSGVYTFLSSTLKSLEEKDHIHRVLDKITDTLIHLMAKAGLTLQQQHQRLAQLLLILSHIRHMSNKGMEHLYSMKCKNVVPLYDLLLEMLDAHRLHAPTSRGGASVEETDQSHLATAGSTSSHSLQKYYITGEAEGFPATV

Hepa1.12cR cells = assay: Cell cytotoxicity / proliferation for the AhR-CALUX assay
[3] = target: T3, human androgen receptor (AR) (Homo sapiens, UniProt P10275); assay: cell-based; assay type: cell-based
T3 sequence (P10275 1-920): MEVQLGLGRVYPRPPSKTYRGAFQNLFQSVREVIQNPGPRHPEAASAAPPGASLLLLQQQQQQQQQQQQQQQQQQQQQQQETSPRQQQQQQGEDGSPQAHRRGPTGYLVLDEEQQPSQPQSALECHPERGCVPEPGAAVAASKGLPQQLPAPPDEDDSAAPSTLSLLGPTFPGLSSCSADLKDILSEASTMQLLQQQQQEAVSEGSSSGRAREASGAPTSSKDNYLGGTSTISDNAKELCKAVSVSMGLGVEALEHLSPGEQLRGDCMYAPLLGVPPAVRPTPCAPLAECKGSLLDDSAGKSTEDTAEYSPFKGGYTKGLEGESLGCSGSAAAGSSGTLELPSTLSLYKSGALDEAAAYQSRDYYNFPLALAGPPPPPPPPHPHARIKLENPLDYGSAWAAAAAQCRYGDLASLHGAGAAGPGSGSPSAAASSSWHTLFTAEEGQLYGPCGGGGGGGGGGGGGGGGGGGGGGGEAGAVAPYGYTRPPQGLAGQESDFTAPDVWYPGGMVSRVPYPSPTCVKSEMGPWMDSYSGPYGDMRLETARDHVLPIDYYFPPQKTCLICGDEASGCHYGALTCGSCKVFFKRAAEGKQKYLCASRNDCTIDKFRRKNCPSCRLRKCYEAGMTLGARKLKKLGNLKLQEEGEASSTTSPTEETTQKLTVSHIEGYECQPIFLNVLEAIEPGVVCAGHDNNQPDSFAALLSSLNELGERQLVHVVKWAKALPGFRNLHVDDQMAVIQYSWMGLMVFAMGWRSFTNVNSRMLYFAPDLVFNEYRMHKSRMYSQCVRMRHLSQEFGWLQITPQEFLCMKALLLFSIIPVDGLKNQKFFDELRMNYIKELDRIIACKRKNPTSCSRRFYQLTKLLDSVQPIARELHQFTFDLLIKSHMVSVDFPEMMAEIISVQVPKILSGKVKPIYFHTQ

JEG-3 cells = assay: Cell cytotoxicity for the aromatase assay; assay type: cell-based, human
[4] = co-exposure with 0.1 nM R1881, CHO cells
[5] = chemical alone, Hepa1.12cR cells

aryl hydrocarbon receptor (AhR), sequence (P30561 10-805 limits assumed): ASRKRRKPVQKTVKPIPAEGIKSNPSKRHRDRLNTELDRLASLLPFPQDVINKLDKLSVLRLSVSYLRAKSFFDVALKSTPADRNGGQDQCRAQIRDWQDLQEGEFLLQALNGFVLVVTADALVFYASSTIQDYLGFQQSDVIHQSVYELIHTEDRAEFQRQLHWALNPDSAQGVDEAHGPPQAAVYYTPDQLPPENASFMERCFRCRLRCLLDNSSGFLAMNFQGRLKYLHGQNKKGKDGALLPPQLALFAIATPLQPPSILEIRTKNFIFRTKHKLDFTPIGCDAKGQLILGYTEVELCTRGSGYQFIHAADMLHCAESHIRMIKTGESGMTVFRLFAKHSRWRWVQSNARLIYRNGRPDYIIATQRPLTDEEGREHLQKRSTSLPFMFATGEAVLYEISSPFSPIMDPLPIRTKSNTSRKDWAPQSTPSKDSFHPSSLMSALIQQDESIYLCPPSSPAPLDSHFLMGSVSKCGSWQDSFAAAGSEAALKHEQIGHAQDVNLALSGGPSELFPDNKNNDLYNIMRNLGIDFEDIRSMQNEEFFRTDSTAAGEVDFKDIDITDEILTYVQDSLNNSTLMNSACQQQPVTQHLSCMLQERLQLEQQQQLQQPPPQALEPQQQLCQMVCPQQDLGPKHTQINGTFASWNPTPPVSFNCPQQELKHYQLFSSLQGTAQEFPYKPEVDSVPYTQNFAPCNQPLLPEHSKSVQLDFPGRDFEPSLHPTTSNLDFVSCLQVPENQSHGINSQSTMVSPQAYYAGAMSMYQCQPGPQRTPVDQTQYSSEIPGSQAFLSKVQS
aryl hydrocarbon receptor (AhR), sequence (P53762 whole entry partner): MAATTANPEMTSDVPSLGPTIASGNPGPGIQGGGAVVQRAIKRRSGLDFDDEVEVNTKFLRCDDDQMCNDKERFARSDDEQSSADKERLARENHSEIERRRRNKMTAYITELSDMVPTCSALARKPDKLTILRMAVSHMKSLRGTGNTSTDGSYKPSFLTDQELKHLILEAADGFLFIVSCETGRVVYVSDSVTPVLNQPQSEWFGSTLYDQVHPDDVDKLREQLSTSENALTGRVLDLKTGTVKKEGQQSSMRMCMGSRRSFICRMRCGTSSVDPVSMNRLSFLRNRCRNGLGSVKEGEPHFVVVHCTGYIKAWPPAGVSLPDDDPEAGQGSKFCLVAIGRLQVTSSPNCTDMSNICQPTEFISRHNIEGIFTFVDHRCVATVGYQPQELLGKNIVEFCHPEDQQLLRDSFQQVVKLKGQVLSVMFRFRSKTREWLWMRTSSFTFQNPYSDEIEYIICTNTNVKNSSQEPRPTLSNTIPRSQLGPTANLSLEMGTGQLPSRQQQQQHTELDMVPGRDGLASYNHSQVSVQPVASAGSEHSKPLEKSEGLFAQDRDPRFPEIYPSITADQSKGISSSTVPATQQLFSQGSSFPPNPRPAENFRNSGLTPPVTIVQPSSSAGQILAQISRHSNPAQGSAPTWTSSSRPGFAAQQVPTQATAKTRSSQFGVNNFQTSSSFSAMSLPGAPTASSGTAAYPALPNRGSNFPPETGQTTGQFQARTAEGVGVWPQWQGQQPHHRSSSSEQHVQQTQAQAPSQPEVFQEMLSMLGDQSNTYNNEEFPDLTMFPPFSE

Row | SMILES | LOEC, aromatase (inhibited activity) (aromatase (CYP19); JEG-3 cells) [nM] | MOEC, aromatase (inhibited activity) (aromatase (CYP19); JEG-3 cells) [µM] | Maximum % (maximum down-regulation / maximum inhibition, MI), aromatase (aromatase (CYP19)) [%] | concentrations of cytotoxicity, AR assay (CHO cells) [µM] | Cytotox (M), AR assay (CHO cells) [M] | LOEC (lowest effect concentration), ER ([2]; chemical alone, MVLN cells) [nM] | MOEC (maximal effect concentration), ER ([2]; chemical alone, MVLN cells) [µM] | concentration (range) of significant aromatase inhibition (aromatase (CYP19); JEG-3 cells) | Cytotox (M), AhR assay (Hepa1.12cR cells) | LOEC, AhR (increased activity) [1, 5] [nM] | Cytotox (M), ER assay (MVLN cells) [M] | further results
1 | C[C@]12CCC(=O)C(O)=C1CC[C@@H]1[C@@H]2CC[C@]2(C)C(=O)CC[C@@H]12 [4-AOD, 4-androsten-4-ol-3,17-dione, reference compound] | 1 | 100 | 100 |  |  |  |  |  |  |  |  | EC50 (aromatase (CYP19)): 6 nM; IC50 (aromatase (CYP19)): 6 nM; EC100 of aromatase inhibitor control (aromatase (CYP19); JEG-3 cells): 10 µM; REP (relative potency), aromatase (aromatase (CYP19); REP-aromatase = LOEC 4-AOD/LOEC test compound): 1
2 | CC(C)(c1ccc(O)cc1)c1ccc(O)cc1 [BPA, Bisphenol A] | 100000 | 100 | 59 | > 40 | > 4e-05 | 100 | 10 | 10^−4 M | > 10^−4 M |  |  | concentration of decreased TCDD-induced AhR activity [1]: 10^−4 M; concentration (range) of decreased AhR activity, alone ([1]; chemical alone): 5 × 10^−5 to 10^−4 M; LOEC, AhR (inhibited activity) ([1]; inhibited activity): 5 × 10^−5 ^d M; response on co-treatment with 25 pM E2 at 50 μM [2]: significant decreased response; concentration range of ER-mediated (estrogenic) response ([2]; chemical alone, MVLN cells): 10^−8 to 5 × 10^−5 M; IC50 [3]: 1000 nM; concentration range of significant antiandrogenic effect ([3]; co-exposure with 0.1 nM R1881): 0.60 to 20 µM; LOEC, AR (inhibited activity) [3, 4]: 600 nM; MOEC, AR (inhibited activity) [3, 4]: 20 µM; Maximum % (maximum down-regulation / maximum inhibition, MI), AR ([3]; control inducer 0.1 nM R1881 set to 100%): 90%
3 | Clc1cc2c(cc1Cl)Oc1cc(Cl)c(Cl)cc1O2 [TCDD, 2,3,7,8-tetrachlorodibenzo-p-dioxin, reference compound] |  |  |  |  |  |  |  |  |  | 0.002 |  | AhR-CALUX activity relative to solvent control ([1]; 60 pM TCDD alone, 0.1% DMSO set to 1, mean ± SD): 14.84 ± 6.26 and 13.89 ± 7.32; MOEC, AhR (increased activity) [1, 5]: 10 nM; REP (relative potency), AhR ([1]; relative to TCDD): 1
4 | CCCCCCCCCc1ccc(O)cc1 [nNP, 4-n-nonylphenol] | 1 | 10 | 71 | > 40 | > 4e-05 | 10 | 10 | 10^−9–10^−5 M |  | 50 | 2.5e-05 | concentration of decreased TCDD-induced AhR activity ([1]; co-treatment with TCDD-EC50 (60 pM)): 10^−4 M; EC50 [2]: 8900 nM; concentration giving further increase of the 25 pM E2-induced activity level [2]: 5 × 10^−6 M; concentration at which cytotoxicity was observed, ER assay (MVLN cells): 25 µM
5 | CCCCCCCCc1ccc(O)cc1 [nOP, 4-n-octylphenol] |  |  |  |  | > 2e-05 |  |  |  | > 10^−4 M |  | 5e-05 | Cytotox (M), aromatase assay (JEG-3 cells): 10^−4 M
